Reference: patent US20180071242A1, “SUBSTITUTED ACYLANILIDES AND METHODS OF USE THEREOF” (University of Tennessee Research Foundation, priority 2006, published 2018)

Key:
[1] = target: T1, MR (Rattus norvegicus, UniProt P22199); assay: Transient transfection luciferase transactivation assay in HEK-293 cells; type: cell-based; conditions: 1 nM
T1 construct: expressed in transfected cells; host or cells: HEK-293
T1 sequence (P22199 1-981): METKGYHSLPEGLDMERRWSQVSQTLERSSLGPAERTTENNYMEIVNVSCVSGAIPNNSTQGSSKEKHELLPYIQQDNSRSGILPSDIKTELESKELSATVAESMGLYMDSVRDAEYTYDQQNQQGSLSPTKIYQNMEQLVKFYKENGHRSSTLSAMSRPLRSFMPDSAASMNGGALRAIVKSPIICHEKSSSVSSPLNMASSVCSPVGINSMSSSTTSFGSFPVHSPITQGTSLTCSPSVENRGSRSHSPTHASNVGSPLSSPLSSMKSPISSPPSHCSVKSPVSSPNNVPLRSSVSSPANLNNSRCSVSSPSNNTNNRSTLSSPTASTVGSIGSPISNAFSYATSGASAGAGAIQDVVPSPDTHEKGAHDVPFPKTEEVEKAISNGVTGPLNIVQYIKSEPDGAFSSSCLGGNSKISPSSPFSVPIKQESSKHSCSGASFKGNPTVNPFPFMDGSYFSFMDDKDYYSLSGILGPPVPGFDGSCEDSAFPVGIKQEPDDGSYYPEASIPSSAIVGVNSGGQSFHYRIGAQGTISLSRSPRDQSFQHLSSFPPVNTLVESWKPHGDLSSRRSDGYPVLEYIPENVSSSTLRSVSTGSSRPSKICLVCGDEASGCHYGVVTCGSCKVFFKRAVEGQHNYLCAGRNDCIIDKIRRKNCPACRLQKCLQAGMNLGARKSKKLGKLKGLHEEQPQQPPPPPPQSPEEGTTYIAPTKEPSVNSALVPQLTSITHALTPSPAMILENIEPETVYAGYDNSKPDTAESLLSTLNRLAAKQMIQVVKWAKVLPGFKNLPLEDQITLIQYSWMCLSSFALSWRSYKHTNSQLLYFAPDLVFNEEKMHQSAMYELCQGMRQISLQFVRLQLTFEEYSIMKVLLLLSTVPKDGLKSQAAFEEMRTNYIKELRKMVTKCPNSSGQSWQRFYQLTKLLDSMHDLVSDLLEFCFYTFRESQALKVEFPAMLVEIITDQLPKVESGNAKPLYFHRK

[2] = system: DMD (−/−) UTRN (−/−) mice; assay: Double knockout mouse model of Duchenne muscular dystrophy; conditions: 10 mg/kg/day, data cumulative across the SARM groups
[3] = target: T2, PR (Rattus norvegicus, UniProt Q63449); assay: Transient transfection luciferase transactivation assay in HEK-293 cells; type: cell-based; conditions: 1 nM
T2 construct: expressed in transfected cells; host or cells: HEK-293
T2 sequence (Q63449 1-923): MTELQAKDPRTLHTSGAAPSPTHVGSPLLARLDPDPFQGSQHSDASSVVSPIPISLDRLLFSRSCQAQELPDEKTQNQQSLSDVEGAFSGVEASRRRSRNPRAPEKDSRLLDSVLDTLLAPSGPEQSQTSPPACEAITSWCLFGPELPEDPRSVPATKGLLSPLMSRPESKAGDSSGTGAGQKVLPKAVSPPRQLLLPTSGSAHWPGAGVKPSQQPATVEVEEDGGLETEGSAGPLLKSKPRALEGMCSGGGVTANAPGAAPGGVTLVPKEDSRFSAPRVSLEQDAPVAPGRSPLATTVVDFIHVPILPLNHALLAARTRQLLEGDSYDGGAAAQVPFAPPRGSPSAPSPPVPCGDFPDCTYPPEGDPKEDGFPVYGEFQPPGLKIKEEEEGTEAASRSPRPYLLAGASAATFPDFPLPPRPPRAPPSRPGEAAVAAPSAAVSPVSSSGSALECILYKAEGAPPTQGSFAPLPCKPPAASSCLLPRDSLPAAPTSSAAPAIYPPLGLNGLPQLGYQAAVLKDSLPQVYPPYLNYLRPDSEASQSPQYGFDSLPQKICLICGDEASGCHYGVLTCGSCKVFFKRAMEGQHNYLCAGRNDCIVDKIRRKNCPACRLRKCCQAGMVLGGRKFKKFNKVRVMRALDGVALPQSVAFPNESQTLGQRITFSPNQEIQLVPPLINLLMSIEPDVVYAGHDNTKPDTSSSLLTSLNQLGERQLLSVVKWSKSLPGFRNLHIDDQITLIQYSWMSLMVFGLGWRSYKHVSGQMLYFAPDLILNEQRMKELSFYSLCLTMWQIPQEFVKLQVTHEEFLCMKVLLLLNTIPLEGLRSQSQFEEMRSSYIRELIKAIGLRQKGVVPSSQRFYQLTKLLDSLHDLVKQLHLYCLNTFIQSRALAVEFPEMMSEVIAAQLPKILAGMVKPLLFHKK

[4] = target: T3, GR (Rattus norvegicus, UniProt P06536); assay: as above; type: cell-based; conditions: 1 nM
T3 construct: expressed in transfected cells; host or cells: HEK-293
T3 sequence (P06536 1-795): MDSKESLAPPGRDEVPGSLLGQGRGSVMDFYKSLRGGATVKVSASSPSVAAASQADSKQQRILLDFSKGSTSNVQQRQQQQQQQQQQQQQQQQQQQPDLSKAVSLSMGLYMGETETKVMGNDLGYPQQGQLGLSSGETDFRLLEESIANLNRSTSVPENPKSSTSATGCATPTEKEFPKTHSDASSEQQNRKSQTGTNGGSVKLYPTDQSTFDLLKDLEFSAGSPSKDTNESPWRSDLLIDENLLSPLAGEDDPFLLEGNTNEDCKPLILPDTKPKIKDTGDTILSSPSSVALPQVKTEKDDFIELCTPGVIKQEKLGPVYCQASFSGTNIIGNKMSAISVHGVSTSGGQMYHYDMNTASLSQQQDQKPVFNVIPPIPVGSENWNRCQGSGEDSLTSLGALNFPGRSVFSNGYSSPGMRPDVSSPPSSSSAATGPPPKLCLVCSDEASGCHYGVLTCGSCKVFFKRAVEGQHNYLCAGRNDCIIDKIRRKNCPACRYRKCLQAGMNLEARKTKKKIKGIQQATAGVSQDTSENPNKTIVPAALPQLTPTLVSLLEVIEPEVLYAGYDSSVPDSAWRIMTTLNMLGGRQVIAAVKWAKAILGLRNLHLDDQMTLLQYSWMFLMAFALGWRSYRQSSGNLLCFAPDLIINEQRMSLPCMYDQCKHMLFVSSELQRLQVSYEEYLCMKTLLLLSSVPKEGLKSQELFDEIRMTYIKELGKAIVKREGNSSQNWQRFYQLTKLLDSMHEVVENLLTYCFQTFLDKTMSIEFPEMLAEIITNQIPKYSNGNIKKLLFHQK

[5] = system: orchidectomized (ORX) male Sprague-Dawley rats; assay: Anabolic and androgenic activity in castrated (ORX) male rats; type: in vivo, rat; conditions: maximally stimulated
Protocol: Anabolic and androgenic efficacy of compound of formula (I) administered by daily oral gavage were tested. The S-isomer of compound (I) [S-(I)] was synthesized and tested as described herein.
The test article for this study was weighed and dissolved in 10% DMSO (Fischer) diluted with PEG 300 (Acros Organics, NJ) for preparation of the appropriate dosage concentrations. The animals were housed in groups of 2 to 3 animals per cage. Animals were randomly assigned to one of seven groups consisting of 4 to 5 animals per group. Control groups (intact and ORX) were administered vehicle daily. S-(I) was administered via oral gavage at doses of 0.01, 0.03, 0.1, 0.3, 0.75, and 1 mg/day to both intact and ORX groups. Where appropriate, animals were castrated on day one of the study. Treatment with S-(I) began nine days post ORX and was administered daily via oral gavage for fourteen days.
The animals were sacrificed under anesthesia (ketamine/xyalzine, 87:13 mg/kg) and body weights were recorded. In addition, ventral prostate, seminal vesicles, and levator ani muscle were removed, individually weighed, normalized to body weight, and expressed as a percentage of intact control. Student's T-test was used to compare individual dose groups to the intact control group. Significance was defined a priori as a P-value <0.05. Ventral prostate and seminal vesicle weights were evaluated as a measure of androgenic activity, whereas levator ani muscle weight was evaluated as a measure of anabolic activity. Blood was collected from the abdominal aorta, centrifuged, and sera were frozen at −80° C. prior to determination of serum hormone levels. Serum luteinizing hormone (LH) and follicle stimulating hormone (FSH) concentrations were determined.

[6] = target: T4, CYP2C9 (Homo sapiens, UniProt P11712); assay: CYP inhibition screening, recombinant enzyme (fluorescent-based) assay; type: in vitro ADME; conditions: human, 30 min
T4 construct: purchased Gentest, BD Biosciences
T4 sequence (P11712 whole entry): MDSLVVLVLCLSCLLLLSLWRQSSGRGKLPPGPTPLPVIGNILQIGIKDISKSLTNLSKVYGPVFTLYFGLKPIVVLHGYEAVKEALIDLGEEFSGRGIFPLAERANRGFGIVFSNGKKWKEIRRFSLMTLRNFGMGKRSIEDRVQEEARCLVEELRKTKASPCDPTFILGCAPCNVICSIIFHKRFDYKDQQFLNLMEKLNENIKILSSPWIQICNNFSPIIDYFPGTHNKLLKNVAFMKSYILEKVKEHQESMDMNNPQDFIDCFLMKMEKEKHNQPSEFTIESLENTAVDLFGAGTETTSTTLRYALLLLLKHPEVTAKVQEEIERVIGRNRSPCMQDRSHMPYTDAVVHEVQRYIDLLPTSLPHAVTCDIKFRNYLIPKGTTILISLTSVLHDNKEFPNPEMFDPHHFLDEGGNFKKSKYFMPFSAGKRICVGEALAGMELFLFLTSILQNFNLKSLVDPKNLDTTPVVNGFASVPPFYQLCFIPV

For `C[C@]12CCC(=O)C=C1CC[C@@H]1[C@@H]2[C@@H](O)C[C@]2(C=O)[C@@H](C(=O)CO)CC[C@@H]12` [aldosterone, reference compound], the “MR activity induced by known ligand” value [1] was 60 fold.

`C[C@](O)(COc1ccc(C#N)cc1)C(=O)Nc1ccc(C#N)c(C(F)(F)F)c1` [S-(IV)] was tested, and the “Ability to be ambulatory (in words)” value [2] was “enhanced the ability of these mice to be ambulatory”, the “Deterioration of body weight (in words)” value [2] was “delayed the deterioration” and the “Deterioration of grip strength (in words)” value [2] was “delayed the deterioration”. For the same compound, the “Deterioration of lean mass (in words)” value [2] was “delayed the deterioration”.

In the case of `CC(=O)[C@H]1CC[C@H]2[C@@H]3CCC4=CC(=O)CC[C@]4(C)[C@H]3CC[C@]12C` [progesterone, reference compound], the “PR activity induced by known ligand” value [3] is reported as 23 fold.

With `C[C@@H]1C[C@H]2[C@@H]3CCC4=CC(=O)C=C[C@]4(C)[C@@]3(F)[C@@H](O)C[C@]2(C)[C@@]1(O)C(=O)CO` [dexamethasone, reference compound] the “GR activity induced by known ligand” value [4] was 70 fold.

In the case of `CC#C[C@]1(O)CC[C@H]2[C@@H]3CCC4=CC(=O)CCC4=C3[C@@H](c3ccc(N(C)C)cc3)C[C@@]21C` [RU486, reference compound], the “Inhibition of PR activity, antagonist mode (in words)” value [3] is reported as “completely inhibited”.

For `CCC(=O)O[C@H]1CC[C@H]2[C@@H]3CCC4=CC(=O)CC[C@]4(C)[C@H]3CC[C@]12C` [Testosterone propionate, reference compound], the “Maximal stimulation of levator ani muscle weight” value [5] was 104%.

In the case of `C[C@](O)(COc1ccc(C#N)c(F)c1)C(=O)Nc1ccc(C#N)c(C(F)(F)F)c1` [S-(V)], the “Ability to be ambulatory (in words)” value [2] is reported as “enhanced the ability of these mice to be ambulatory”, the “Deterioration of body weight (in words)” value [2] is reported as “delayed the deterioration” and the “Deterioration of grip strength (in words)” value [2] is reported as “delayed the deterioration”. For the same compound, the “Deterioration of lean mass (in words)” value [2] was “delayed the deterioration”.

With `CC(=O)Nc1ccc(OC[C@](C)(O)C(=O)Nc2ccc([N+](=O)[O-])c(C(F)(F)F)c2)cc1` [S-4, S-3-(4-acetylaminophenoxy)-2-hydroxy-2-methyl-N-(4-nitro-3-trifluoromethylphenyl)propanamide, reference compound] the “Maximal stimulation of levator ani muscle weight” value [5] was 101%.

With `Nc1ccc(S(=O)(=O)Nc2ccnn2-c2ccccc2)cc1` [Sulfaphenazole, reference compound] the “Inhibition of CYP2C9 activity (in words)” value [6] was “potently inhibited”.
